TGI data for 11 compounds are collected here from PubChem BioAssay (NCI).

Test systems include OVCAR-3 ovarian; CCRF-CEM leukemia; T-47D breast; SK-MEL-5 melanoma; DU-145 prostate; A498 renal; SF-539 CNS; UACC-257 melanoma; SN12C renal; MCF7 breast.
Common to all, as to assay: inhibition of tumour cell growth, NCI panel, 48 h

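Step 1: Grow cells in 96-well plates. Step 2: Expose to compound for 48 hours at 5 concentrations. Step 3: Interpolate endpoints linearly; if unreached, use highest concentration. TGI: total growth inhibition.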

On to `O=C1/C(=C2\SCC(=O)N2c2ccccc2)SC(=S)N1c1ccccc1`, for which the TGI with OVCAR-3 ovarian was 83.2 µM; in the experiment on CCRF-CEM leukemia it was over 100 µM; in the experiment on T-47D breast it was over 100 µM; in the experiment on SK-MEL-5 melanoma, over 100 µM; in the experiment with DU-145 prostate, over 100 µM; with A498 renal it was over 100 µM. The TGI was 85.4 µM with SF-539 CNS, over 100 µM in the experiment on UACC-257 melanoma, 68.6 µM in the experiment on SN12C renal and over 100 µM in the experiment on MCF7 breast.
Take `CC(C)(C)OC(=O)N1C/C=C\C(=O)C2(OCCO2)c2ccccc21`: the TGI in the experiment with OVCAR-3 ovarian is 29.6 µM; in the experiment with CCRF-CEM leukemia, 57 µM; in the experiment on T-47D breast, 49.5 µM; in the experiment on SK-MEL-5 melanoma it was 31.7 µM; in the experiment with DU-145 prostate, 81.8 µM; in the experiment on A498 renal, over 100 µM. The TGI was 50.3 µM with SF-539 CNS, 39.3 µM in the experiment on UACC-257 melanoma, 88.9 µM in the experiment with SN12C renal and 96.2 µM in the experiment with MCF7 breast.
Take `CC(C)(C)OC(=O)NCCNC(=O)CN(CC(=O)O)C1CCCCC1N(CC(=O)O)CC(=O)O` (stereo not given): the TGI with OVCAR-3 ovarian, with CCRF-CEM leukemia, in the experiment with T-47D breast, with SK-MEL-5 melanoma, in the experiment with DU-145 prostate and with A498 renal was over 100 µM in each case. For the same compound, the TGI in the experiment on SF-539 CNS, with UACC-257 melanoma, in the experiment on SN12C renal and in the experiment on MCF7 breast was over 100 µM in each case.
Take `CCOC(=O)C1=CN(C(=O)c2ccccc2)CCC1Cc1ccccc1` (stereo not given): the TGI in the experiment on OVCAR-3 ovarian is over 100 µM; in the experiment with CCRF-CEM leukemia, 54.5 µM; in the experiment with T-47D breast, 72.8 µM; with SK-MEL-5 melanoma, 28.3 µM; with DU-145 prostate it was over 100 µM; in the experiment on A498 renal, 39.4 µM. In addition, the TGI in the experiment with SF-539 CNS stood at 63.6 µM; in the experiment on UACC-257 melanoma, 34.3 µM; in the experiment with SN12C renal, 57.4 µM; with MCF7 breast it was 64 µM.
As to `CCOC(=O)/C=C(/C(=O)OCC)n1ccc(=O)[nH]c1=O`, the TGI was 12.8 µM with OVCAR-3 ovarian; 3.99 µM in the experiment with CCRF-CEM leukemia; 16.6 µM with T-47D breast; 31 µM in the experiment on SK-MEL-5 melanoma; 29 µM in the experiment on DU-145 prostate; 38.2 µM in the experiment on A498 renal. Besides, the TGI in the experiment on SF-539 CNS was determined as 34.8 µM; in the experiment with UACC-257 melanoma, 25.2 µM; with SN12C renal, 19.6 µM; with MCF7 breast, 14.9 µM.
Regarding `CSc1nc(=O)c(C#N)c(-c2ccccc2)n1C1OC(COC(C)=O)C(OC(C)=O)C(OC(C)=O)C1OC(C)=O` (stereo not given), the TGI in the experiment with OVCAR-3 ovarian, with CCRF-CEM leukemia, in the experiment with T-47D breast, with SK-MEL-5 melanoma, in the experiment on DU-145 prostate and in the experiment with A498 renal was over 100 µM in each case. In addition, the TGI in the experiment on SF-539 CNS, in the experiment with UACC-257 melanoma, in the experiment with SN12C renal and in the experiment on MCF7 breast was over 100 µM in each case.
In the case of `CC1CN=C(N(C)C(=O)Nc2ccc(Cl)c(Cl)c2)S1` (stereo not given), the TGI is over 100 µM with OVCAR-3 ovarian; over 100 µM with CCRF-CEM leukemia; over 100 µM with T-47D breast; 29.9 µM in the experiment with SK-MEL-5 melanoma; over 100 µM with DU-145 prostate; over 100 µM with A498 renal. The TGI is 52.6 µM in the experiment on SF-539 CNS, over 100 µM with UACC-257 melanoma, over 100 µM in the experiment on SN12C renal and 59.7 µM in the experiment with MCF7 breast.
Consider `O=C(CCC(=O)OCC1OC(O)(CC2OC(CO)C(O)C(O)C2O)C(O)C1O)OCc1ccccc1` (stereo not given), for which the TGI in the experiment on OVCAR-3 ovarian, with CCRF-CEM leukemia, in the experiment with T-47D breast, in the experiment on SK-MEL-5 melanoma, with DU-145 prostate and in the experiment on A498 renal was over 100 µM throughout. Besides, the TGI in the experiment on SF-539 CNS, in the experiment with UACC-257 melanoma, in the experiment with SN12C renal and with MCF7 breast was over 100 µM in each case.
As to `O=C1OC(C(O)C(O)C(O)CO)C(O)C1O` (stereo not given), the TGI in the experiment on OVCAR-3 ovarian, with CCRF-CEM leukemia, in the experiment on T-47D breast, in the experiment with SK-MEL-5 melanoma, with DU-145 prostate and in the experiment on A498 renal was over 100 µM throughout. The TGI in the experiment on SF-539 CNS, with UACC-257 melanoma, with SN12C renal and in the experiment on MCF7 breast was over 100 µM each time.
As for `COc1cc(C2C3=C(N=C4SC(C(C)=O)=C(C)N42)c2ccccc2CC3)cc(OC)c1OC` (stereo not given), the TGI with OVCAR-3 ovarian was over 100 µM; with CCRF-CEM leukemia, over 100 µM; in the experiment with T-47D breast, 50.9 µM; in the experiment with SK-MEL-5 melanoma it was over 100 µM; in the experiment on DU-145 prostate, over 100 µM; with A498 renal, over 100 µM. The TGI in the experiment with SF-539 CNS, with UACC-257 melanoma, in the experiment with SN12C renal and in the experiment with MCF7 breast was over 100 µM throughout.
For `OC1(c2ccc(Cl)cc2)c2ccccc2C2=NCc3ccccc3CN21` (stereo not given), the TGI was 6.33 µM with OVCAR-3 ovarian; over 69.6 µM with CCRF-CEM leukemia; over 61.7 µM in the experiment on T-47D breast; 33.6 µM in the experiment on SK-MEL-5 melanoma; 34.7 µM with DU-145 prostate; 30.2 µM in the experiment on A498 renal. The TGI is 24.4 µM with SF-539 CNS, 28.3 µM in the experiment with UACC-257 melanoma, over 52.4 µM in the experiment on SN12C renal and 17.9 µM with MCF7 breast.
